System: 519858-162-T-J1-PDC complex spheroid growth, % test/control
Test: Anticancer human tumor 519858-162-T-J1-PDC patient-derived colon adenocarcinoma cell line growth inhibition [Asc]
Settings: for IC50: curve of first compound; for viability, T/C: stronger effect = lower value
Method: Multicellular complex tumor spheroid response to apoptosis pathway targeting inhibitors Alrizomadlin, Pelcitoclax, and Dasminapant in combination with a variety of drugs and investigational agents in selected tumor cell lines
The MDM2 inhibitor alrizomadlin, the Bcl-2/Bcl-xL inhibitor pelcitoclax, and the IAPs inhibitor dasminapant were evaluated both individually and in combination with standard of care and investigational anticancer small molecules within a complex spheroid model of solid tumors. . Complex spheroids include a stromal component modeled by human endothelial cells (HUVEC) and fibroblasts modeled by human mesenchymal stem cells (MSCs). The concentration ranges selected for each drug and investigational agent were based upon clinically achievable concentrations if the clinical Cmax of the agent was known.
Compounds. The drugs and investigational agents: alrizomadlin (APG-115; NSC831270), pelcitoclax (APG-1252; NSC835773), dasminapant (APG-1387;NSC834197), TAK-243 (NSC785004), copanlisib (NSC809693), olaparib (NSC753686), talazoparib (NSC767125), cobimetinib (NSC 768068), eltanexor (KPT-8602, NSC 794443), abemaciclib (NSC 768073), sotorasib (NSC818433), adagrasib (NSC 831453), MRTX-1133 (NSC 836407), Iadademestat (ORY1001, NSC 806812), and RMC-4630 (NSC839698), were obtained from the NCI Developmental Therapeutics Program Chemical Repository. The FDA-approved anticancer drug set is available from the Developmental Therapeutics Program at https://dtp.cancer.gov/organization/dscb/obtaining/available plates.htm. […] The stock solutions were prepared in dimethyl sulfoxide (DMSO, Sigma-Aldrich, St. Louis, MO, cat. D2650) at 800-fold the tested concentration and stored at -70 degrees C prior to their use. All drugs and investigational agents were tested over a range starting from a high concentration at or near the clinical Cmax and decreasing in half-log increments. If the clinical Cmax for an agent had not been determined, the highest concentration tested was 10 microM.
The patient-derived cancer (PDC) cell lines include five colon adenocarcinomas: 186277-243-T-J2-PDC, 616215-338-R-J1-PDC, 439559-082-T-J2-PDC, 463943-066-T-J2-PDC, and 519858-162-T-J1-PDC; three pancreatic carcinomas: 323965-272-R-J2-PDC, 521955-158-R6-J3-PDC, and 521955-158-R2-J5-PDC; two uterine sarcomas: 327498-152-R-J2-PDC and 993429-296-R-J1-PDC; two rhabdomyosarcomas: 755483-174-R-J1-PDC and 772245-204-R-J1-PDC; two soft tissue sarcomas: 126254-015-R-J1-PDC and 494315-158-R-J1-PDC; two malignant fibrous histiocytomas: 317291-083-R-J1-PDC and 596521-263-R-J1-PDC; two breast carcinomas: 171881-019-R-J1-PDC and 885512-296-R-J2-PDC; and one ovarian carcinoma: 6556581-035-R-J-PDC were obtained from the NCI PDMR, (https://pdmr.cancer.gov). The established cell lines HSSY-2 synovial sarcoma (RRID:CVCL 8719), SYO-1 synovial sarcoma (RRID:CVCL_7146), MPNST malignant peripheral neural sheath tumor were obtained from the Sloan Kettering Institute. The following established cell lines were purchased from the American Type Culture Collection (ATCC, Manassas, VA), Sor the received from the NCI repository:, PANC-1 pancreatic carcinoma (CRL-1469, RRID:CVCL_0480), OVCAR-5 ovarian carcinoma (RRID:CVCL_1628), OVCAR-8 ovarian carcinoma (RRID:CVCL_1629), , MCF-7 breast carcinoma (CRL-12584, RRID:CVCL_0031), MDA-MB-231 breast carcinoma (CRL-12532, RRID:CVCL_0062), NCI-H1876 small cell lung carcinoma (CRL-5902, RRID:CVCL_1503), NCI-H510A small cell lung carcinoma (HTB-184, RRID:CVCL_1565), NCI-H1417 (CRL-5869, RRID:CVCL_1469), and NCI-H196 small cell lung carcinoma (CRL-5823, RRID:CVCL_1509). Dr. Peter Houghton (Greehey Children's Cancer Research Institute, University of Texas Health Science Center, San Antonio, TX) provided Rh-18 rhabdomyosarcoma (RRID:CVCL_1659). Pooled donor human umbilical vein endothelial cells (HUVEC, Lonza, cat. CC-2519) and human mesenchymal stem cells (hMSC, Lonza, cat. PT-2501) were purchased from Lonza (Walkersville, MD).
Cell Culture. […]
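Also: seven day drug exposure begun three days after spheroid seeding.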
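For viability, T/C in this document: 100% = DMSO vehicle wells and lower values mean less viable spheroid.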

With `NC(=O)C(=Cn1cnc(-c2cc(C(F)(F)F)cc(C(F)(F)F)c2)n1)c1cncnc1` + CCN1C(C(=O)NC23CCC(C(=O)O)(CC2)CC3)C(c2cccc(Cl)c2F)C2(C(=O)Nc3cc(Cl)ccc32)C12CCCCC2 as the compound, how does the IC50 (second compound 0.00949 µM) read?
The IC50 was > 300 nM.

And the IC50 (second compound 0.03 µM)?
The IC50 was > 300 nM.

What about the IC50 (second compound 0.0949 µM) of the same compound?
The IC50 was > 300 nM.

What about the IC50 (second compound 0.3 µM) of the same compound?
Its IC50 is > 300 nM.

What about the IC50 (second compound 0.949 µM) of the same compound?
The IC50 was > 300 nM.

And the IC50 (second compound 3 µM)?
The IC50 was > 300 nM.

What about the viability, T/C (second compound 0.00949 µM, first compound 0.000949 µM) of the same compound?
The viability, T/C was 102%.

And the viability, T/C (second compound 0.00949 µM, first compound 0.003 µM)?
The viability, T/C was 94.8%.

And the viability, T/C (second compound 0.00949 µM, first compound 0.00949 µM)?
Its viability, T/C is 56.9%.

And the viability, T/C (second compound 0.00949 µM, first compound 0.03 µM)?
The viability, T/C was 69.6%.

What about the viability, T/C (second compound 0.00949 µM, first compound 0.0949 µM) of the same compound?
Its viability, T/C is 65.8%.

And the viability, T/C (second compound 0.00949 µM, first compound 0.3 µM)?
The viability, T/C was 81.9%.

And the viability, T/C (second compound 0.03 µM, first compound 0.000949 µM)?
The viability, T/C was 87.2%.

What about the viability, T/C (second compound 0.03 µM, first compound 0.003 µM) of the same compound?
The viability, T/C was 81%.

What about the viability, T/C (second compound 0.03 µM, first compound 0.00949 µM) of the same compound?
Its viability, T/C is 94.5%.

And the viability, T/C (second compound 0.03 µM, first compound 0.03 µM)?
The viability, T/C was 81.4%.

What about the viability, T/C (second compound 0.03 µM, first compound 0.0949 µM) of the same compound?
The viability, T/C was 63.5%.

And the viability, T/C (second compound 0.03 µM, first compound 0.3 µM)?
The viability, T/C was 53.8%.

What about the viability, T/C (second compound 0.0949 µM, first compound 0.000949 µM) of the same compound?
Its viability, T/C is 87.5%.

What about the viability, T/C (second compound 0.0949 µM, first compound 0.003 µM) of the same compound?
The viability, T/C was 94.5%.

What about the viability, T/C (second compound 0.0949 µM, first compound 0.00949 µM) of the same compound?
Its viability, T/C is 94.3%.

And the viability, T/C (second compound 0.0949 µM, first compound 0.03 µM)?
Its viability, T/C is 63.8%.

And the viability, T/C (second compound 0.0949 µM, first compound 0.0949 µM)?
Its viability, T/C is 63.4%.

What about the viability, T/C (second compound 0.0949 µM, first compound 0.3 µM) of the same compound?
Its viability, T/C is 63%.

And the viability, T/C (second compound 0.3 µM, first compound 0.000949 µM)?
Its viability, T/C is 75.5%.

And the viability, T/C (second compound 0.3 µM, first compound 0.003 µM)?
The viability, T/C was 73.2%.

And the viability, T/C (second compound 0.3 µM, first compound 0.00949 µM)?
The viability, T/C was 70.8%.

What about the viability, T/C (second compound 0.3 µM, first compound 0.03 µM) of the same compound?
The viability, T/C was 88.2%.

What about the viability, T/C (second compound 0.3 µM, first compound 0.0949 µM) of the same compound?
The viability, T/C was 45.1%.

What about the viability, T/C (second compound 0.3 µM, first compound 0.3 µM) of the same compound?
The viability, T/C was 85.9%.

What about the viability, T/C (second compound 0.949 µM, first compound 0.000949 µM) of the same compound?
Its viability, T/C is 69.5%.

And the viability, T/C (second compound 0.949 µM, first compound 0.003 µM)?
The viability, T/C was 71.9%.

What about the viability, T/C (second compound 0.949 µM, first compound 0.00949 µM) of the same compound?
The viability, T/C was 58.3%.

And the viability, T/C (second compound 0.949 µM, first compound 0.03 µM)?
Its viability, T/C is 78.7%.

And the viability, T/C (second compound 0.949 µM, first compound 0.0949 µM)?
Its viability, T/C is 85.4%.

And the viability, T/C (second compound 0.949 µM, first compound 0.3 µM)?
Its viability, T/C is 79.2%.

What about the viability, T/C (second compound 3 µM, first compound 0.000949 µM) of the same compound?
Its viability, T/C is 69%.

What about the viability, T/C (second compound 3 µM, first compound 0.003 µM) of the same compound?
Its viability, T/C is 81.2%.

And the viability, T/C (second compound 3 µM, first compound 0.00949 µM)?
Its viability, T/C is 59%.

And the viability, T/C (second compound 3 µM, first compound 0.03 µM)?
The viability, T/C was 65.5%.

What about the viability, T/C (second compound 3 µM, first compound 0.0949 µM) of the same compound?
Its viability, T/C is 91.2%.

And the viability, T/C (second compound 3 µM, first compound 0.3 µM)?
The viability, T/C was 82.1%.
